According to PubChem BioAssay AID248 (DTP/NCI, 2004):
Toxic doses and inconclusive results are not listed.

System: L1210 leukemia ip in BDF1 mice, survival T/C
Assay: NCI In Vivo Anticancer Drug Screen. Data for tumor model L1210 Leukemia (intraperitoneal) in B6D2F1 (BDF1) mice
Conditions: endpoint: mean survival time, higher = longer survival
How it was run: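 Transplantable tumor model; survival measured in treated vs vehicle control mice. Value = treated/control.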

[1] = dose: 100.0 mg/kg/injection, schedule: Q01DX009 (ip), vehicle: saline with Tween-80
[2] = dose: 200.0 mg/kg/injection, schedule: Q01DX009 (ip), vehicle: saline with Tween-80
[3] = dose: 100.0 mg/kg/injection, schedule: Q01DX001 (ip), vehicle: saline
[4] = dose: 200.0 mg/kg/injection, schedule: Q01DX001 (ip), vehicle: saline
[5] = dose: 400.0 mg/kg/injection, schedule: Q01DX001 (ip), vehicle: saline
[6] = dose: 100.0 mg/kg/injection, schedule: Q01DX009 (ip), vehicle: Klucel (hydroxypropylcellulose) (HPC)
[7] = dose: 100.0 mg/kg/injection, schedule: Q04DX003 (ip), vehicle: Klucel (hydroxypropylcellulose) (HPC)
[8] = dose: 200.0 mg/kg/injection, schedule: Q01DX009 (ip), vehicle: Klucel (hydroxypropylcellulose) (HPC)
[9] = dose: 200.0 mg/kg/injection, schedule: Q04DX003 (ip), vehicle: Klucel (hydroxypropylcellulose) (HPC)
[10] = dose: 400.0 mg/kg/injection, schedule: Q04DX003 (ip), vehicle: Klucel (hydroxypropylcellulose) (HPC)
[11] = dose: 50.0 mg/kg/injection, schedule: Q04DX003 (ip), vehicle: saline
[12] = dose: 100.0 mg/kg/injection, schedule: Q04DX003 (ip), vehicle: saline
[13] = dose: 100.0 mg/kg/injection, schedule: Q04DX003 (ip), vehicle: saline with Tween-80
[14] = dose: 200.0 mg/kg/injection, schedule: Q04DX003 (ip), vehicle: saline with Tween-80
[15] = dose: 400.0 mg/kg/injection, schedule: Q04DX003 (ip), vehicle: saline with Tween-80

For Cc1ccc(C(=O)Cc2ccccc2)cc1, the T/C (dose: 100.0 mg/kg/injection, schedule: Q04DX002 (ip), vehicle: Klucel (hydroxypropylcellulose) (HPC)) was 94 % of control, the T/C (dose: 200.0 mg/kg/injection, schedule: Q04DX002 (ip), vehicle: Klucel (hydroxypropylcellulose) (HPC)) was 98 % of control and the T/C (dose: 400.0 mg/kg/injection, schedule: Q04DX002 (ip), vehicle: Klucel (hydroxypropylcellulose) (HPC)) was 110 % of control.
For O=C(O)CN(Cc1ccccc1)C(=O)COc1ccc(Cl)c(Cl)c1, the T/C (dose: 100.0 mg/kg/injection, schedule: Q04DX003 (ip), vehicle: gum acacia) was 100 % of control, the T/C (dose: 200.0 mg/kg/injection, schedule: Q04DX003 (ip), vehicle: gum acacia) was 92 % of control and the T/C (dose: 400.0 mg/kg/injection, schedule: Q04DX003 (ip), vehicle: gum acacia) was 91 % of control.
For CC1(C)N=C(N)N=C(N)N1c1ccc(OCCCNC(=O)Nc2ccc(S(=O)(=O)F)cc2)c(Cl)c1, the T/C (dose: 18.75 mg/kg/injection, schedule: Q04DX003 (ip), vehicle: saline with Tween-80) was 106 % of control, the T/C (dose: 37.5 mg/kg/injection, schedule: Q04DX003 (ip), vehicle: saline with Tween-80) was 104 % of control and the T/C (dose: 50.0 mg/kg/injection, schedule: Q01DX004 (ip), vehicle: saline) was 111 % of control. The T/C (dose: 75.0 mg/kg/injection, schedule: Q04DX003 (ip), vehicle: saline with Tween-80) was 103 % of control and the T/C (dose: 100.0 mg/kg/injection, schedule: Q01DX004 (ip), vehicle: saline) was 100 % of control.
In the case of CCCCN(C(C)(C)C(SSSC(c1ccc(Cl)cc1)C(C)(C)N(CCCC)S(C)(=O)=O)c1ccc(Cl)cc1)S(C)(=O)=O (stereo unspecified), the T/C [1] was 96 % of control and the T/C [2] was 86 % of control.
With CCCCC(=O)N/N=C/c1ccc(O)cc1O the T/C [3] was 97 % of control, the T/C [4] was 92 % of control and the T/C [5] was 94 % of control.
With CCOC(=O)c1c[nH]c2cc(Cl)ccc2c1=O the T/C [6] was 97 % of control, the T/C [7] was 98 % of control and the T/C [8] was 100 % of control. For the same molecule, the T/C [9] was 102 % of control, the T/C (dose: 400.0 mg/kg/injection, schedule: Q01DX009 (ip), vehicle: Klucel (hydroxypropylcellulose) (HPC)) was 98 % of control and the T/C [10] was 96 % of control.
For COc1cccc(CC(C)N)c1OC (stereo unspecified), the T/C (dose: 25.0 mg/kg/injection, schedule: Q04DX003 (ip), vehicle: saline) was 103 % of control, the T/C [11] was 91 % of control and the T/C [12] was 101 % of control.
For Cc1ccc(N=Cc2cc(Cl)cc(Cl)c2O)cc1.Cc1ccc(N=Cc2cc(Cl)cc(Cl)c2O)cc1.[Co], the T/C [13] was 104 % of control, the T/C [14] was 100 % of control and the T/C [15] was 114 % of control.
In the case of Clc1c2ccccc2c(Cl)c2ccccc12, the T/C (dose: 3.1 mg/kg/injection, schedule: Q04DX002 (ip), vehicle: Klucel (hydroxypropylcellulose) (HPC)) was 89 % of control, the T/C (dose: 6.25 mg/kg/injection, schedule: Q04DX002 (ip), vehicle: Klucel (hydroxypropylcellulose) (HPC)) was 100 % of control and the T/C (dose: 12.5 mg/kg/injection, schedule: Q04DX002 (ip), vehicle: Klucel (hydroxypropylcellulose) (HPC)) was 93 % of control. For the same molecule, the T/C (dose: 25.0 mg/kg/injection, schedule: Q04DX002 (ip), vehicle: Klucel (hydroxypropylcellulose) (HPC)) was 90 % of control.
CC(=O)Nc1ccc(SC2(Sc3ccc(NC(C)=O)cc3)c3ccccc3-c3ccccc32)cc1 was tested, and the T/C [3] was 92 % of control, the T/C [4] was 98 % of control and the T/C [5] was 100 % of control.
For OC(/C=C/c1ccccc1)(c1ccccc1)c1ccccc1, the T/C [7] was 94 % of control, the T/C [9] was 93 % of control and the T/C [10] was 96 % of control.
With CC(=O)N(CCN(Cc1ccc(Oc2ccc([N+](=O)[O-])cc2[N+](=O)[O-])cc1)C(C)=O)CCN(Cc1ccc(Oc2ccc([N+](=O)[O-])cc2[N+](=O)[O-])cc1)C(C)=O the T/C (dose: 25.0 mg/kg/injection, schedule: Q01DX009 (ip), vehicle: other) was 102 % of control, the T/C (dose: 50.0 mg/kg/injection, schedule: Q01DX009 (ip), vehicle: other) was 97 % of control and the T/C (dose: 100.0 mg/kg/injection, schedule: Q01DX009 (ip), vehicle: other) was 96 % of control. For the same molecule, the T/C (dose: 200.0 mg/kg/injection, schedule: Q01DX009 (ip), vehicle: other) was 96 % of control and the T/C (dose: 400.0 mg/kg/injection, schedule: Q01DX009 (ip), vehicle: other) was 93 % of control.
CC(=O)OC1CCC2(C)C(CCC3C2CCC2(C)C3CC3OC(CCCC(C)CO)C(C)C32)C1 (stereo unspecified) was tested, and the T/C (dose: 25.0 mg/kg/injection, schedule: Q01DX001 (ip), vehicle: saline with Tween-80) was 88 % of control, the T/C (dose: 50.0 mg/kg/injection, schedule: Q01DX001 (ip), vehicle: saline with Tween-80) was 98 % of control and the T/C (dose: 100.0 mg/kg/injection, schedule: Q01DX001 (ip), vehicle: saline with Tween-80) was 95 % of control. The T/C (dose: 400.0 mg/kg/injection, schedule: Q01DX001 (ip), vehicle: saline with Tween-80) was 95 % of control.
In the case of CCN(CC)C(=O)c1ccc([N+](=O)[O-])cc1, the T/C (dose: 50.0 mg/kg/injection, schedule: Q01DX009 (ip), vehicle: Klucel (hydroxypropylcellulose) (HPC)) was 97 % of control, the T/C [6] was 97 % of control and the T/C [7] was 92 % of control. For the same molecule, the T/C [8] was 95 % of control and the T/C [9] was 100 % of control.
In the case of COC(=O)CSC/C(=N\Nc1ccccc1)c1ccccc1, the T/C [11] was 106 % of control, the T/C [3] was 104 % of control and the T/C [12] was 94 % of control. For the same molecule, the T/C [4] was 98 % of control, the T/C (dose: 200.0 mg/kg/injection, schedule: Q04DX003 (ip), vehicle: saline) was 97 % of control and the T/C [5] was 93 % of control. For the same molecule, the T/C (dose: 400.0 mg/kg/injection, schedule: Q04DX003 (ip), vehicle: saline) was 89 % of control.
O=C(Nc1ccc(C2=NCCCN2)cc1)Nc1cccc(C(=O)Nc2ccc(C3=NCCCN3)cc2)c1 was tested, and the T/C (dose: 1.25 mg/kg/injection, schedule: Q01DX Z (ip), vehicle: carboxymethylcellulose (CMC)) was 101 % of control, the T/C (dose: 2.5 mg/kg/injection, schedule: Q01DX Z (ip), vehicle: carboxymethylcellulose (CMC)) was 106 % of control and the T/C (dose: 5.0 mg/kg/injection, schedule: Q01DX Z (ip), vehicle: carboxymethylcellulose (CMC)) was 109 % of control. The T/C (dose: 7.5 mg/kg/injection, schedule: Q01DX Z (ip), vehicle: carboxymethylcellulose (CMC)) was 112 % of control, the T/C (dose: 10.0 mg/kg/injection, schedule: Q01DX Z (ip), vehicle: carboxymethylcellulose (CMC)) was 162 % of control and the T/C (dose: 15.0 mg/kg/injection, schedule: Q01DX Z (ip), vehicle: carboxymethylcellulose (CMC)) was 171 % of control. For the same molecule, the T/C (dose: 20.0 mg/kg/injection, schedule: Q01DX Z (ip), vehicle: carboxymethylcellulose (CMC)) was 190 % of control, the T/C (dose: 30.0 mg/kg/injection, schedule: Q01DX Z (ip), vehicle: carboxymethylcellulose (CMC)) was 118 % of control and the T/C (dose: 40.0 mg/kg/injection, schedule: Q01DX Z (ip), vehicle: carboxymethylcellulose (CMC)) was 86 % of control. The T/C (dose: 62.0 mg/kg/injection, schedule: Q01DX Z (oral), vehicle: carboxymethylcellulose (CMC)) was 102 % of control, the T/C (dose: 125.0 mg/kg/injection, schedule: Q01DX Z (oral), vehicle: carboxymethylcellulose (CMC)) was 105 % of control and the T/C (dose: 250.0 mg/kg/injection, schedule: Q01DX Z (oral), vehicle: carboxymethylcellulose (CMC)) was 102 % of control. The T/C (dose: 500.0 mg/kg/injection, schedule: Q01DX Z (oral), vehicle: carboxymethylcellulose (CMC)) was 107 % of control.
For CC(=O)Nc1ccc(C(=O)N=C(C2CCCC2)N2CCCC2)cc1, the T/C [3] was 96 % of control, the T/C [4] was 100 % of control and the T/C [5] was 105 % of control.
For CC(=O)OCC(OC(C)=O)C(OC(C)=O)C(OC(C)=O)C(OC(C)=O)C(C=O)OC(C)=O (stereo unspecified), the T/C [13] was 92 % of control, the T/C [14] was 95 % of control and the T/C [15] was 106 % of control.
In the case of COC(=O)/C(C#N)=N/O, the T/C (dose: 50.0 mg/kg/injection, schedule: Q01DX009 (ip), vehicle: saline with Tween-80) was 102 % of control, the T/C [1] was 97 % of control and the T/C [13] was 100 % of control. For the same molecule, the T/C [2] was 94 % of control and the T/C [14] was 94 % of control.
In the case of O=[N+]([O-])c1cc([N+](=O)[O-])c(/C=C/c2cccc(OCc3ccccc3)c2)cc1/C=C/c1cccc(OCc2ccccc2)c1, the T/C (dose: 75.0 mg/kg/injection, schedule: Q01DX001 (ip), vehicle: saline) was 91 % of control, the T/C (dose: 150.0 mg/kg/injection, schedule: Q01DX001 (ip), vehicle: saline) was 89 % of control and the T/C (dose: 300.0 mg/kg/injection, schedule: Q01DX001 (ip), vehicle: saline) was 91 % of control.
